Test [1] deals with laser-induced ocular hypertensive non-human primates. Briefly: Intraocular pressure (IOP) lowering effect in laser-induced ocular hypertensive non-human primates (topical dosing, pneumatonometer). In kind it is in vivo.
In test [2] the test system is ocular normotensive New Zealand white rabbits. Briefly: Intraocular pressure (IOP) lowering effects in ocular normotensive New Zealand white rabbits (topical dosing, pneumatonometer). It counts as in vivo.
The mark [3] stands for this setting: Example 26, 2.0% w/v, 30 μL topical.

As to `O=C(O)CCCCCO[N+](=O)[O-]` [(IIIa)-OH, 6-(nitrooxy)hexanoic acid], in test [1] (in vivo), the “IOP change (mmHg) E480” value is −2.7±1.5 mmHg and the “IOP change (mmHg) Emax” value is given as −5.2±1.0 mmHg.
As for `CCCOc1ccc(S(=O)(=O)N2CCN(CCOC(=O)CCOC[C@@H](CO[N+](=O)[O-])O[N+](=O)[O-])CC2)cc1-c1nc2c(CCC)cn(CC)c2c(=O)[nH]1.O=C(O)CC(O)(CC(=O)O)C(=O)O` [Compound (1)-(2S)-citrate salt, (S)-2-(4-(3-(5-ethyl-4-oxo-7-propyl-4,5-dihydro-3H-pyrrolo[3,2-d]pyrimidin-2-yl)-4-propoxyphenylsulfonyl)piperazin-1-yl)ethyl 3-[2,3-bis(nitrooxy)propoxy]propanoate citrate], in test [1] (in vivo), the “IOP change (mmHg) 30 min” value is recorded as −4.0 ± 0.9 mmHg, the “IOP change (mmHg) 60 min” value was −5.3 ± 1.0 mmHg, the “IOP change (mmHg) 180 min” value was −4.9 ± 1.5 mmHg and the “IOP change (mmHg) 300 min” value is −4.4 ± 0.9 mmHg. In test [1] (in vivo), the “IOP change (mmHg) 1440 min” value is −2.6 ± 1.3 mmHg, the “IOP change (mmHg) E300 min” value is given as −5.3 ± 1.9 mmHg and the “IOP change (mmHg) Emax” value was −7.0 ± 0.9 (60 min) mmHg. In test [2] (rabbit, in vivo), the “IOP change (mmHg) E180 min” value is given as −1.8 ± 0.8 mmHg, the “IOP change (mmHg) Emax” value is given as −3.8 ± 0.5 (60 min) mmHg and the “IOP change at Emax” value is listed as −3.8 ± 0.5 (60 min).
On to `COc1ccc(CNc2nc(N3CCC[C@H]3COC(=O)CCCCCO[N+](=O)[O-])ncc2C(=O)NCc2ncccn2)cc1Cl.O=C(O)CC(O)(CC(=O)O)C(=O)O` [Compound (9)-citrate salt, (S)-(1-(4-(3-chloro-4-methoxybenzylamino)-5-(pyrimidin-2-ylmethylcarbamoyl)pyrimidin-2-yl)pyrrolidin-2-yl)methyl 6-(nitrooxy)hexanoate 2-hydroxypropane-1,2,3-tricarboxylate], for which, in test [1] (in vivo), the “IOP change (mmHg) E480” value is −6.0±2.1 mmHg and the “IOP change (mmHg) Emax” value was −6.0±2.1 mmHg.
For `COc1ccc(CNc2nc(N3CCC[C@H]3COC(=O)CCCCCO[N+](=O)[O-])ncc2C(=O)NCc2ncccn2)cc1Cl.O=C(O)/C=C/C(=O)O` [Compound (9)-fumarate salt, (S)-(1-(4-(3-chloro-4-methoxybenzylamino)-5-(pyrimidin-2-ylmethylcarbamoyl)pyrimidin-2-yl)pyrrolidin-2-yl)methyl 6-(nitrooxy)hexanoate Fumarate], the “IOP change (mmHg) 30 min” value in test [1] (Example 26, Table 5, 2.0% w/v, 30 μL topical, 30 min post-dosing, mean±SEM n=8 eye) is recorded as −4.0 ± 1.3 mmHg. In addition, in test [1] (Example 26, Table 5, 2.0% w/v, 30 μL topical, 60 min post-dosing, mean±SEM n=8 eye), the “IOP change (mmHg) 60 min” value is given as −3.5 ± 1.6 mmHg. The “IOP change (mmHg) 300 min” value in test [1] (Example 26, Table 5, 2.0% w/v, 30 μL topical, 300 min post-dosing, mean±SEM n=8 eye) was −4.1 ± 2.7 mmHg. Also, the “IOP change (mmHg) 1440 min” value in test [1] (Example 26, Table 5, 2.0% w/v, 30 μL topical, 1440 min (24 hours) post-dosing, mean±SEM n=8 eye, Fumarate) was −2.8±2.0 mmHg. Also, in test [1] (setting [3]), the “maximum intraocular pressure-lowering efficacy, Emax” value was −4.1±2.7 mmHg and the “time of Emax” value amounted to 300 min.
`COc1ccc(CNc2nc(N3CCC[C@H]3COC(=O)CCOC[C@@H](CO[N+](=O)[O-])O[N+](=O)[O-])ncc2C(=O)NCc2ncccn2)cc1Cl.O=C(O)CC(O)(CC(=O)O)C(=O)O` [Compound (12)-(2S)-citrate salt, ((S)-1-(4-(3-chloro-4-methoxybenzylamino)-5-(pyrimidin-2-ylmethylcarbamoyl)pyrimidin-2-yl)pyrrolidin-2-yl)methyl 3-((S)-2,3-bis(nitrooxy)propoxy)propanoate 2-hydroxypropane-1,2,3-tricarboxylate]: in test [2] (rabbit, in vivo), the “IOP change (mmHg) 30 min” value is −5.6 ± 0.9 mmHg, the “IOP change (mmHg) 60 min” value was −3.9 ± 1.0 mmHg and the “IOP change (mmHg) 120 min” value was −2.4 ± 0.8 mmHg.
`CCCOc1ccc(S(=O)(=O)N2CCN(CCO)CC2)cc1-c1nc2c(CCC)cn(CC)c2c(=O)[nH]1` [Mirodenafil, reference compound]: the “IOP change (mmHg) E300 min” value is −3.4 ± 2.3 mmHg in test [1] (Example 22, Table 1, 300 min post-dose, topical 30 μL, 0.48 μmoles/eye (1.17 μmoles/eye for (IIIg)-OH), mean±SEM n=13) and −1.46 ± 0.79 mmHg in test [2] (Example 24, Table 3, 300 min post-dosing, topical 50 μL, 0.5 μmoles/eye (each compound), mean±SEM n=6-9). The “time post-dosing of Emax” value in test [1] (Example 22, Table 1, topical 30 μL, 0.48 μmoles/eye (1.17 μmoles/eye for (IIIg)-OH)) is recorded as 180 min; in test [2] (Example 24, Table 3, topical 50 μL, 0.5 μmoles/eye (each compound)), 120 min. The “IOP change (mmHg) Emax” value in test [1] (Example 22, Table 1, topical 30 μL, 0.48 μmoles/eye (1.17 μmoles/eye for (IIIg)-OH), change versus basal and vehicle, mean±SEM n=13) is on record as −5.0 ± 2.1 mmHg; in test [2] (Example 24, Table 3, topical 50 μL, 0.5 μmoles/eye (each compound), change versus basal and vehicle, mean±SEM n=6-9), −3.68 ± 0.89 mmHg. In addition, in test [1] (Example 27, Table 6, 0.31 μmoles/eye (each compound), 30 μL topical, 30 min post-dose, mean±SEM n=13), the “IOP change (mmHg) 30 min” value is listed as −2.2 ± 1.4 mmHg. For the same molecule, in test [1] (Example 27, Table 6, 0.31 μmoles/eye (each compound), 30 μL topical, 60 min post-dose, mean±SEM n=13), the “IOP change (mmHg) 60 min” value is −4.1 ± 1.5 mmHg. In test [1] (Example 27, Table 6, 0.31 μmoles/eye (each compound), 30 μL topical, 180 min post-dose, mean±SEM n=13), the “IOP change (mmHg) 180 min” value is −3.8 ± 1.0 mmHg. In test [1] (Example 27, Table 6, 0.31 μmoles/eye (each compound), 30 μL topical, 300 min post-dose, mean±SEM n=13), the “IOP change (mmHg) 300 min” value is given as −2.2 ± 1.1 mmHg. Also, the “IOP change (mmHg) 1440 min” value in test [1] (Example 27, Table 6, 0.31 μmoles/eye (each compound), 30 μL topical, 1440 min post-dose, mean±SEM n=13) was −1.0 ± 1.1 mmHg.
For `CCCOc1ccc(S(=O)(=O)N2CCN(CCO[N+](=O)[O-])CC2)cc1-c1nc2c(CCC)cn(CC)c2c(=O)[nH]1` [PDE5 nitrate ester, 2-(4-(3-(5-ethyl-4-oxo-7-propyl-4,5-dihydro-3H-pyrrolo[3,2-d]pyrimidin-2-yl)-4-propoxyphenylsulfonyl)piperazin-1-yl)ethyl Nitrate, reference compound], the “IOP change (mmHg) E180 min” value in test [2] (Example 25, Table 4, 180 min post-dosing, topical, 0.5 μmoles/eye, mean±SEM n=6-9) worked out at 0.3 ± 0.8 mmHg. The “time post dosing of Emax” value in test [2] (Example 25, Table 4, topical, 0.5 μmoles/eye) came to 60 min. For the same molecule, in test [2] (Example 25, Table 4, topical, 0.5 μmoles/eye, change versus basal and vehicle, mean±SEM n=6-9), the “IOP change (mmHg) Emax” value is −2.6 ± 0.5 mmHg.

Source of the values: patent US11980618B2, “Nitric oxide releasing phosphodiesterase type 5 inhibitor” (NICOX S.A., priority 2018, dated 2024).
